# US9145351B2, “Azole derivatives, methods for producing the same, intermediate thereof, agro-horticultural agents” (KUREHA CORPORATION, priority 2009, dated 2015)
# Tests used:
# Septoria tritici [1] = test: Assay for fungicidal effect on Septoria tritici, plate medium 0.02 mg/L (Experimental Example 7); type: cell-based
# Description: In this Experimental Example, the fungicidal effects of the inventive compounds on a phytopathogenic fungi, Septoria tritici were examined and compared to the Comparative Compound (3) described in Patent Literature 1 (JPA01-93574) by the methods described below. […] The subject microorganism previously cultured on a plate medium was cut out using a cork borer whose diameter was 4 mm, and inoculated to the test compound-containing plate medium described above. […] The growth degree of the microorganism on the test compound-containing plate medium thus observed was compared with the growth degree of the microorganism in the untreated group, and % mycelial growth inhibition was calculated by the following equation. R=100(dc−dt)/dc wherein R=% mycelial extension inhibition, dc=flora diameter in untreated plate, dt=flora diameter in treated plate. The results obtained as described above were evaluated as one of the 5 grades according to the following criteria. <Growth Inhibition Grade> […]
# Puccinia recondita [2] = test: Efficacy test against wheat brown rust, 2 mg/L (Experimental Example 8); type: in vivo; conditions: sprayed at 1,000 L/ha, concentration printed 0.02 mg/L, 9 to 14 days after inoculation
# Procedure: Onto a wheat plant (variety: […] The sprayed leaves were air-dried, and inoculated with spore suspension of Puccinia recondita (adjusted at 200 spores/vision, […] was added at 60 ppm) by spraying, and kept at 25 degrees C. and a high humidity for 48 hours. Thereafter, the plant was kept in a greenhouse. Nine to 14 days after inoculation, the wheat brown rust lesion degree was investigated, and the protective value was calculated by the following equation. Protective value (%)=(1-lesion degree in sprayed plot/lesion degree in unsprayed plot)×100
# Septoria tritici [3] = test: Microplate test of biocidal effect on wheat Septoria blotch (Experimental Example 4); type: cell-based; conditions: Zymoseptoria tritici, 240 h; % mycelium growth inhibition, absorbance 550 nm, 20 degrees C. for about 10 days; read-out: activity level (EC80)
# Procedure: A spore suspension of wheat Septoria blotch (Septoria tritici) (spore concentration: 1×10^6 cells/ml) was prepared, and subjected to 100-fold dilution with a PD medium. A flat 96-well microplate was provided and 1 microliter of the test compound solution formed by dissolution in dimethyl sulfoxide (DMSO) at a concentration 100 times the test concentration was dispensed to the microplate, and then 100 microliter of the medium containing the spore was added and stirred thoroughly. […] R=100×(dc−dt)/dc: R: % mycelium growth inhibition dc: Absorbance of non-treatment zone dt: Absorbance of treatment zone
# Septoria tritici [4] = test: Assay for fungicidal effect on Septoria tritici, plate medium 1.25 mg/L (Experimental Example 9); type: cell-based; conditions: Zymoseptoria tritici, read-out: growth inhibition grade
# Procedure: Each inventive compound was dissolved in 2 ml of dimethyl sulfoxide. 0.6 ml of this solution was added to 60 nil of a PDA medium (potato dextrose agar medium) at about 60 degrees C., which was mixed thoroughly in a 100-ml conical flask, and poured into a dish, where it was solidified, thereby obtaining a plate medium containing the inventive compound at 50 mg/L and 5 mg/L. On the other hand, a subject microorganism previously cultured on a plate medium was cut out using a cork borer whose diameter was 4 mm, and inoculated to the test compound-containing plate medium described above. […] The growth degree of the microorganism on the test compound-containing plate medium thus observed was compared with the growth degree of the microorganism in the untreated group, and % mycelial growth inhibition was calculated by the following equation. R=100(dc−dt)/dc wherein R=% mycelial extension inhibition, dc=flora diameter in untreated plate, dt=flora diameter in treated plate. The results obtained as described above were evaluated as one of the 5 grades according to the following criteria. […] In this Experimental Example, the fungicidal effects of the inventive compounds on Septoria tritici were examined by the methods described in the Experimental Example 5. In this Experimental Example, the inventive compounds were diluted at 1.25 mg/L.
# Puccinia recondita [5] = test: Efficacy test against wheat brown rust, 1 mg/L (Experimental Example 10); type: in vivo; conditions: 1 g/ha (1 mg/L sprayed at 1,000 L/ha)
smiles,measurement,setting,value
CC1(C)CC[C@@H](Cc2ccc(F)cc2)[C@]1(O)Cn1cncn1 (racemic) [Compound (3)],grade (growth inhibition grade),Septoria tritici [1],2 (% Mycerial growth inhibition of less than 40 to 20% or higher)
same,degree (wheat brown rust lesion degree),Puccinia recondita [2],3 (10% or higher and less than 30%)
"CC1(C)CC[C@H](Cc2ccc(Cl)cc2)[C@@]1(O)Cn1cncn1 (racemic) [comparative compound (I), (1RS,5SR)-5-(4-chlorobenzyl)-2,2-dimethyl-1-(1H-1,2,4-triazol-1-ylmethyl)cyclopentanol, reference compound]",EC80,Septoria tritici [3],0.4 µg/mL
same,inhibition at 1.25 µg/mL,Septoria tritici [4],40 to 60%
same,lesion degree,Puccinia recondita [5],3 (10% or higher and less than 30%)
